The values below are quoted from earlier work in patent publication US9205054B2 (LOSAN PHARMA GMBH, priority 2005, dated 2015).

The conditions of data set [1]: 0.1 molar hydrochloric acid solution, after one hour.

Structures are written as SMILES. Where two headings read alike, the source gives them in different places.

With `CC(C)Cc1ccc(C(C)C(=O)O)cc1` (racemic) [Ibuprofen, 2-(4-isobutylphenyl)propionic acid], the solubility result runs as follows: (pH 1-5) “under 0.1 g/l”; (pH 7.2) “about 20 g/l”. Further, the dissolved ibuprofen in data set [1] is 10%.
